Results from paper PMC6337627 (Molecules, 2019).
Several values for one entry are separate records, joined by “and”; a condition that tells them apart may be missing. Equal values may be shown once. Starred links: 1 amine or outer side, 2 acyl side, 3 side chain; linkers in the order of their positions; H or OH if unused. Non-standard residues stand in square brackets, D forms with d. Residues, ends and D or L forms follow the SMILES beside them. ξ: configuration not given here. Suc = O=C(CCC(=O)[*:2])[*:1]; Nphe = O=C(O)CNCc1ccccc1; ξF = NC(Cc1ccccc1)C(=O)O; Ava = NCCCCC(=O)O; GABA = NCCCC(=O)O; βAla = NCCC(=O)O

How the values were obtained:
[1] = biological target: acetylcholinesterase (AChE) (Electrophorus electricus, UniProt O42275); assay: biochemical; conditions: for IC50: AChE from Electrophorus electricus, substrate acetylthiocholine, 30 min pre-incubation, mean ± SEM of triplicate independent experiments; for Selectivity: AChE versus BuChE (values fit IC50 BuChE / IC50 AChE)
Sequence of acetylcholinesterase (AChE) (O42275 24-633): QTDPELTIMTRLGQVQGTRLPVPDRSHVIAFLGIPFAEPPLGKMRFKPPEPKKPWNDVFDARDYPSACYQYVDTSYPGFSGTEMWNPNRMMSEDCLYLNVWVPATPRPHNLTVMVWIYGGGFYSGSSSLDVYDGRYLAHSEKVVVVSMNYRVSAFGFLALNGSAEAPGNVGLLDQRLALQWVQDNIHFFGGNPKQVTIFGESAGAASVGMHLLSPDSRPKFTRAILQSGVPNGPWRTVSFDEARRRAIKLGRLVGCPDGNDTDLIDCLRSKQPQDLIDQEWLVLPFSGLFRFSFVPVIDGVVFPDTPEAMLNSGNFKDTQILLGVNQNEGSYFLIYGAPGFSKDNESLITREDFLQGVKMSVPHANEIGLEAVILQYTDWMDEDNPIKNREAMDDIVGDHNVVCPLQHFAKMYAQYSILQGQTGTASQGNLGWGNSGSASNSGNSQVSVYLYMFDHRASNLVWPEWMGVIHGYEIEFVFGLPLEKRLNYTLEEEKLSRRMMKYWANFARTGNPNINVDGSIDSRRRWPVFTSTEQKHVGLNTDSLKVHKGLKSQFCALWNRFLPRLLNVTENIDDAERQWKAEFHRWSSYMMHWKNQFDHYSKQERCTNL

[2] = biological target: T1, butyrylcholinesterase (BuChE) (Equus caballus, UniProt P81908); assay: biochemical; conditions: BuChE from equine serum, substrate butyrylthiocholine, 30 min pre-incubation, mean ± SEM of triplicate independent experiments
T1 construct: from Electrophorus electricus and equine serum; from tissue; host or cells: equine serum
T1 sequence (P81908 whole entry): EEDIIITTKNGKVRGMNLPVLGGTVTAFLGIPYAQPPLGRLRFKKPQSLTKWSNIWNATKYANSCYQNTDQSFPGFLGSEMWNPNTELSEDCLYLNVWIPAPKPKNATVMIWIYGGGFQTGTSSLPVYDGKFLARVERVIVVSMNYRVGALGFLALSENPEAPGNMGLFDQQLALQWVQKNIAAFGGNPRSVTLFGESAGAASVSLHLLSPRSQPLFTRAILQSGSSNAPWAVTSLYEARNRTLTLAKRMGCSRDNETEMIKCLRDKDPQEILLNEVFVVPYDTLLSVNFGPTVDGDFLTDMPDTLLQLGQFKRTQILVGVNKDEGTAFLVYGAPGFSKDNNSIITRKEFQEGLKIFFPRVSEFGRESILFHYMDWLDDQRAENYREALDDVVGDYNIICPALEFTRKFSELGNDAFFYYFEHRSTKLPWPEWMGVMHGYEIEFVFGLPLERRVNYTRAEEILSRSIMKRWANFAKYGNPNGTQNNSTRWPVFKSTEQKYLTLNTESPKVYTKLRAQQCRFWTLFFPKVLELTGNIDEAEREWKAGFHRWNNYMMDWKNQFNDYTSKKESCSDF

AChE = AChE (Electrophorus electricus, UniProt O42275); assay: Kinetic study of AChE inhibition (Michaelis-Menten, Lineweaver-Burk); format: biochemical; conditions: Lineweaver-Burk plots, variation in Km and Vmax
Sequence of AChE (O42275 24-633): as the sequence (O42275 24-633) above
Protocol: For this purpose, the rate of enzyme activity was measured at eight different concentrations of substrate ATC.
The assays were carried out in a total volume of 200 μL per well containing AChE from Electrophorus electricus (0.20 unit/mL) in PBS, the synthesized compound in DMSO, PBS at IC50, 2× IC50 concentration, and substrate solution. The general procedure was as follows: AChE and the synthesized compounds 7a to IC50 and twice concentrations in PBS were mixed and incubated at rt for 30 min. After incubation, substrate from 3.8 × 10^−3–0.48 mM was added into the mixture. The reaction was recorded for 10 min measuring the absorbance at 405 nm using a Microtiter plate reader (Multiskan EX, Thermo). Data were plotted using GraphPad Prism v4.03 software (GraphPad Software Inc., San Diego, CA, USA) to obtain the Michaelis–Menten constant (Km) and maximal velocity (Vmax) values. Km values were expressed in μM and Vmax as mol/min/mg protein and correspond to the mean ± SD of three independent assays in triplicate.
Figure 1 The Lineweaver–Burk plot of AChE (0.02 U) with an acetylthiocholine substrate in the absence and presence of inhibitor 7a.

Row | SMILES | IC50 [1] [µM] | Selectivity [1] | IC50 [2] | kinetic mode of AChE inhibition (AChE)
1 | O=C(O)CCCN(CC(=O)NC(Cc1ccccc1)C(=O)O)C(=O)c1ccccc1 (stereo not shown) [6d] | 10.6 ± 1.5 | 28.36 | 302 ± 5.8 µM | 
2 | O=C(O)CCC(=O)N(CC(=O)NC(Cc1ccccc1)C(=O)O)Cc1ccccc1 (stereo not shown) [6e, 2,6-Dibenzyl-4,7-dioxo-3,6-diazadecanedioic acid] (Suc-[Nphe]-[ξF]-OH) | 305 ± 5.7 | 0.45 | 135 µM and 136 µM | 
3 | NCCCC(=O)N(CC(=O)NC(Cc1ccccc1)C(=O)O)Cc1ccccc1 (stereo not shown) [7a, 10-Amino-2,6-dibenzyl-4,7-dioxo-3,6-diazadecanoic acid] (H-[GABA]-[Nphe]-[ξF]-OH) | 3.67 ± 0.8 | 66.44 | 244 ± 4.6 µM | mixed-type inhibition
4 | NCCC(=O)N(CC(=O)NC(Cc1ccccc1)C(=O)O)Cc1ccccc1 (stereo not shown) [7b, 9-Amino-2,6-dibenzyl-4,7-dioxo-3,6-diazanonanoic acid] (H-[βAla]-[Nphe]-[ξF]-OH) | 41.3 ± 2.3 | 11.17 | 461 ± 6.2 µM | 
5 | NCCCCC(=O)N(CC(=O)NC(Cc1ccccc1)C(=O)O)Cc1ccccc1 (stereo not shown) [7c, 11-Amino-2,6-dibenzyl-4,7-dioxo-3,6-diazaundecanoic acid] (H-[Ava]-[Nphe]-[ξF]-OH) | 12.6 ± 1.6 | 50.69 | 636.7 ± 3.7 µM | 
